Results reported in US6531464B1, “Methods for the treatment of neurodegenerative disorders using substituted phenanthridinone derivatives” (Inotek Pharmaceutical Corporation, priority 1999, dated 2003).

Legend:
[1] = system: Balb/c mice; assay: LPS-induced mortality (systemic inflammatory model); details: LPS 90 mg/kg intraperitoneally; pretreatment 20 mg/kg; over 24 h; 92% death without treatment
Description: In order to substantiate the efficacy of the PJ series of compounds in inflammatory conditions, the effect of compounds according to the invention were tested in a systemic inflammatory model induced by bacterial lipopolysaccharide.

[2] = system: streptozotocin diabetic mice; assay: Streptozotocin induced diabetes: vascular function, glucose, insulin, immunostaining; format: in vivo, mouse
Description: Male Balb/c mice were treated intraperitoneally (i.p.) with streptozotocin (240 mg/kg dissolved in citrate buffer) or vehicle (citrate buffer). Blood glucose was then monitored weekly over 8 weeks using a one-touch blood glucose meter (Lifescan). Hyperglycemia was defined as non-fasting blood glucose level higher than 200 mg/dL. Total glycated hemoglobin (GHb) content of blood samples was measured using a commercially available kit (Sigma Diagnostics) according to manufacturers instructions. […] The optical density of the two fractions was measured by spectrophotometry at 415 nm and the per cent glycated hemoglobin content was calculated as follows: GHb (%)=[…]/(E+[…]). Samples of pancreas were removed on week 8 and weighed before being placed into 6 ml of acid ethanol (23:7:0.45, ethanol:dH2O:HCl) and homogenized. The pancreas was incubated for 72 h at 4° C. before being centrifuged. The insulin content of the supernatant was then determined using a commercially available ELISA kit (Alpco). […] At 8 weeks, blood was taken for measurement of glycosylated hemoglobin levels, pancreata taken for measurements of pancreatic insulin content, and thoracic aortae taken for determination of endothelium-dependent relaxant reactivity. There was no difference in the degree of hyperglycemia and glycosylated hemoglobin, and in the degree of pancreatic insulin loss between vehicle and PJ34 treated diabetic animals. […] Sections were treated with 0.3% hydrogen peroxide for 15 min to block endogenous peroxidase activity and then rinsed briefly in PBS. Non-specific binding was blocked by incubating the slides for 1 h in PBS containing 2% horse serum. To detect poly(ADP-ribose), a routine histochemical procedure was applied, as previously described (Scott et al., Ann. Neurol. 45: 120-124, 1999) with minor modifications, as follows: Mouse monoclonal anti-poly(ADP-ribose) antibody (Alexis, San Diego, Calif.) and isotype-matched control antibody were applied in a dilution of 1:100 for 2 h at room temperature. Following extensive washing (5×5 min) with PBS, immunoreactivity was detected with a biotinylated goat anti-rabbit secondary antibody and the avidin-biotin-peroxidase complex (ABC), both supplied in the Vector Elite kit (Vector Laboratories, Burlingame, Calif.). Color was developed using Ni-DAB substrate (95 mg diaminobenzidine, 1.6 g NaCl, 2 g nickel sulfate in 200 ml 0.1 M acetate buffer). Sections were then counterstained with nuclear fast red, dehydrated and mounted in Permount. Photomicrographs were taken with a Zeiss Axiolab microscope equipped with a Fuji HC-300C digital camera. Detection of nitrotyrosine in aorta rings was carried out as described above for poly(ADP-ribose) staining except that rabbit anti-nitrotyrosine polyclonal antibody was used as the primary antibody. […] Cells were rehydrated in PBS, blocked in 2% goat serum (1 h, room temperature) and incubated in anti-nitrotyrosine (1:100 dilution) for 2 h. Subsequent steps of the staining procedure were identical to the tissue staining. Color was developed with Vector Red substrate, and slides were mounted in glycerol.

[3] = system: mouse; assay: Ischemic and reperfused gut (superior mesenteric artery occlusion); details: gut ischemia-reperfusion; 38% mortality without treatment
Description: In another model, a mouse model of ischemic and reperfused gut was utilized.

[4] = system: cultured neurons; details: oxygen/glucose deprivation; concentration range 10 nM-1 μM
Description: A second experimental system was used where oxygen/glucose deprivation induced cell death in cultured neurons (i.e. an in vitro model of stroke).

[5] = system: anesthetized rat; assay: Coronary artery ligation and release (myocardial reperfusion injury) in anesthetized rat; format: in vivo; design: dose or concentration left out as unconfirmed; details: 1-hour coronary ischemia, 1 hour reperfusion, i.v. 10 min prior to reperfusion
[6] = system: SJL/PLJ mice; assay: Experimental allergic encephalomyelitis (EAE) induced by MBP immunization; format: in vivo, mouse
Description: The studies were performed according to standard methods. See, e.g., Hooper et al., Proc Natl Acad Sci U S A 95:675-680, 1998. Briefly, EAE was caused by immunization of 8-10 week old female SJL/PLJ mice with MBP (in complete Freund's adjuvant containing 0.05% M Butyricum plus an additional 4 mg/ml Mycobacterium Tuberculosis H37 RA, one […] subcutaneous dose plus 2 doses of 400 ng pertussis toxin, intra-peritoneal, on days 0 and 2). The grading system shown in Table 5 was used to evaluate the severity of the disease.

[7] = system: nitric oxide (nitrite); assay: LPS-stimulated J774 macrophages: nitric oxide production measured as nitrite; format: cell-based
Excerpt: In in vitro studies, J774 macrophages were exposed to bacterial lipopolysaccharide (LPS), to induce pro-inflammatory mediator production and cytotoxicity. […] This assay (the LPS-stimulated macrophage) represents an in vitro model of an inflammatory situation. Agents that block inflammatory mediator production in this assay are expected to have anti-inflammatory or immunosuppressive effects in inflammatory or immune diseases.
The half-maximal inhibitory effect (in μM) of various PJ compounds was assessed under a variety of conditions in immunostimulated J774 macrophages and in peroxynitrite-stimulated thymocytes. Macrophages or thymocytes were first treated with a chosen PJ compound for 30 min at a concentration ranging from 0.1 to 30 μM. The cells were then immunostimulated with LPS (10 μg/ml) or treated with peroxynitrite (30 μM). MIP production in the macrophages was measured at 3 h, TNF and nitric oxide were measured at 24 h, cell viability in the macrophages were measured at 24 h. PARS activation and cell death in thymocytes were measured at 6 h. Measurements of mediator production, PARS activation and cell death were essentially as described in Németh, et al., Eur J Pharmacol 339:215-221, 1997 and Virág and Szabó, Br J Pharmacol, 126: 769-777, 1999. Results in Table 2 are shown as EC50 values (half maximal inhibition of mediator production or restoration of cell viability; in μM): [mean±SEM of n=3-6 determinations].

[8] = 10 mg/kg per os once a day from week 1, at 8 weeks
[9] = 10 mg/kg orally 2 times daily from day 10

`CN(C)CC(=O)Nc1ccc2[nH]c(=O)c3ccccc3c2c1` [PJ34, N-(6-oxo-5,6-dihydro-phenanthridin-2-yl)-N,N-dimethylacetamide] was tested. Which endotoxin-induced mortality [1] did it give?
The endotoxin-induced mortality was 50%.

And the “degree of hyperglycemia (blood glucose) vs vehicle” value ([2]; 10 mg/kg per os once a day from week 1, 0-8 weeks)?
Its value is “no difference”.

And the “degree of pancreatic insulin loss vs vehicle” value [2, 8]?
The value was “no difference”.

And the “glycosylated hemoglobin vs vehicle” value [2, 8]?
Its value is “no difference”.

And the “PARS activation (poly(ADP-ribose) staining) in diabetic endothelium” value ([2]; 8 weeks)?
Its value is “abolished”.

What about the “tyrosine nitration (nitrotyrosine immunostaining) in diabetic rings” value ([2]; 8 weeks) of the same compound?
Its value is “not affected”.

What about the “vascular reactivity of normal (non-diabetic) mice” value ([2]; chronic treatment 8 weeks, same regimen, not shown) of the same compound?
The value was “did not affect”.

What about the “acetylcholine induced endothelium-dependent relaxant ability of thoracic aortic rings” value ([2]; diabetic animals at 8 weeks, 10 mg/kg per os daily, P<0.01 vs vehicle) of the same compound?
Its value is “normalized”.

And the survival [3]?
Its survival is 100%.

And the cytoprotection [4]?
The cytoprotection was “up to 70%”.

What about the “reduction of plasma levels of creatine phosphokinase (CPK)” value [5] of the same compound?
Its value is “approx. 50%”.

And the “myocardial infarct size (area of necrosis, over area of risk)” value ([5]; 62±1 without treatment)?
Its value is 50±3%.

What about the “mortality in EAE (in words)” value [6, 9] of the same compound?
The value was “significant reduction”.

What about the “severity of EAE (in words)” value [6, 9] of the same compound?
Its value is “significant reduction”.

And the Percent mortality ([6]; Day 10 after immunization, 10 mg/kg orally 2 times daily from day 10)?
Its Percent mortality is 0%.

And the “Average Disease severity index” value ([6]; Day 10 after immunization, 10 mg/kg orally 2 times daily from day 10, grading Table 5)?
The value was 0.

What about the “Average Disease severity index” value ([6]; Day 11) of the same compound?
Its value is 0.

What about the Percent mortality ([6]; Day 11) of the same compound?
Its Percent mortality is 0%.

What about the “Average Disease severity index” value ([6]; Day 12) of the same compound?
The value was 0.

And the Percent mortality ([6]; Day 12)?
The Percent mortality was 0%.

And the “Average Disease severity index” value ([6]; Day 13)?
Its value is 0.

What about the Percent mortality ([6]; Day 13) of the same compound?
Its Percent mortality is 0%.

And the “Average Disease severity index” value ([6]; Day 14)?
The value was 0.

What about the Percent mortality ([6]; Day 14) of the same compound?
The Percent mortality was 0%.

And the “Average Disease severity index” value ([6]; Day 15)?
The value was 0.

What about the Percent mortality ([6]; Day 15) of the same compound?
The Percent mortality was 0%.

And the “Average Disease severity index” value ([6]; Day 16)?
The value was 4.

What about the Percent mortality ([6]; Day 16) of the same compound?
Its Percent mortality is 0%.

What about the “Average Disease severity index” value ([6]; Day 17) of the same compound?
Its value is 4.

And the Percent mortality ([6]; Day 17)?
Its Percent mortality is 0%.

And the “Average Disease severity index” value ([6]; Day 18)?
The value was 4.

What about the Percent mortality ([6]; Day 18) of the same compound?
The Percent mortality was 0%.

What about the “Average Disease severity index” value ([6]; Day 19) of the same compound?
Its value is 4.

What about the Percent mortality ([6]; Day 19) of the same compound?
The Percent mortality was 0%.

What about the “Average Disease severity index” value ([6]; Day 20) of the same compound?
The value was 3.

And the Percent mortality ([6]; Day 20)?
Its Percent mortality is 0%.

And the “production of nitric oxide, measured as nitrite (in words)” value ([7]; J774 macrophages exposed to LPS)?
Its value is “inhibited”.

What about the EC50 ([7]; Mus musculus, J774, LPS 10 μg/ml, 30 min pretreatment 0.1 to 30 μM, measured at 24 h, mean±SEM n=3-6, read-out: Inhibition of Nitrite (J774)) of the same compound?
The EC50 was 15.2 ± 2.8 µM.
